Values of other authors in patent US11376213B2, “Topical pharmaceutical formulation” (Futura Medical Developments Limited, priority 2016, dated 2022).
Where a name gives a salt, the structure may show the parent alone. One block for each compound: values may come before it.

Assays:
[1] = not given; remark: listed apart in the source
[2] = factor by which greater than piroxicam

aqueous solubility: extremely low
Structure (SMILES): CC(C)Cc1ccc(C(C)C(=O)O)cc1 (centres unmarked) [Ibuprofen, isobutylphenylpropionic acid]

saturated solubility in polyethylene glycol ([1]; polyethylene glycol): 11.18 % w/w
saturated solubility in propylene glycol [1]: 1.16 % w/w
Structure (SMILES): O=C(O)Cc1ccccc1Nc1c(Cl)cccc1Cl [diclofenac acid]

efficacy index (ratio of skin penetration to potency) relative to piroxicam [2]: ~10^3
Structure (SMILES): O=C(O)Cc1ccccc1Nc1c(Cl)cccc1Cl [diclofenac]

saturated solubility in propylene glycol [1]: approximately 50 % w/w
Structure (SMILES): O=C(O)Cc1ccccc1Nc1c(Cl)cccc1Cl [sodium salt of diclofenac acid, diclofenac sodium]
